# Assay results: patent US20070265256A1, “Phosphodiesterase 10 inhibitors” (priority 2006, published 2007)
# Target: T1, mPDE10A7 (Mus musculus, UniProt Q8CA95)
# T1 sequence (Q8CA95 446-763 limits assumed): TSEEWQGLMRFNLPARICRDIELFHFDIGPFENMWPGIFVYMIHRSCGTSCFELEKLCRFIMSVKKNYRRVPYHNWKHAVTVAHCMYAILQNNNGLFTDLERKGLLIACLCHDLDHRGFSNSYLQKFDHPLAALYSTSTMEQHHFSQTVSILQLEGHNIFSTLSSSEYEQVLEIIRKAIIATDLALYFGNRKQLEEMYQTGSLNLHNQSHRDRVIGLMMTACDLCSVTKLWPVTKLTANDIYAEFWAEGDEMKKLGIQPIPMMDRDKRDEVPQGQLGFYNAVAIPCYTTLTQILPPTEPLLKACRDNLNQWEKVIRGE
# Experiment: mPDE10A7 enzyme inhibition (IMAP fluorescence polarization)
# Assay type: biochemical
# Settings: fluorescein labeled cAMP or cGMP substrate
# Procedure: To analyze the enzyme activity, 5 μL of serial diluted mPDE10A7 containing lysate were incubated with equal volumes of diluted (100-fold) fluorescein labeled cAMP or cGMP for 30 minutes in MDC HE 96-well assay plates at room temperature. Both the enzyme and the substrates were diluted in the following assay buffer: Tris/HCl (pH 8.0) 50 mM, MgCl2 5 mM, 2-mercaptoethanol 4 mM, BSA 0.33 mg/mL. After incubation, the reaction was stopped by adding 20 μL of diluted (400-fold) binding reagents and was incubated for an hour at room temperature. The plates were counted in an Analyst GT (Molecular Devices) for fluorescence polarization. An IMAP Assay kit (Molecular Device) was used to assess enzyme properties of mmPDE10A7. Data were analyzed with SoftMax Pro.
# To check the inhibition profile, 10 μL of serial diluted compounds were incubated with 30 μl of diluted PDE enzymes in a 96-well polystyrene assay plate for 30 minutes at room temperature. After incubation, 5 μL of the compound-enzyme mixture were aliquoted into a MDC HE black plate, mixed with 5 μL of 100-fold diluted fluorescein labeled substrates (cAMP or cGMP), and incubated for 30 minutes at room temperature. The reaction was stopped by adding 20 μL of diluted binding reagents and counted in an Analyst GT for fluorescence polarization. The data were analyzed with SoftMax Pro.
row,SMILES,IC50 [µM]
1,COc1cc2nncc(-c3ccc(N4CCn5c(nnc5C(F)(F)F)C4)nc3)c2cc1OC [Cpd 72],0.0686
2,COc1cc2nncc(-c3ccc(Nc4nnc(C5CC5)s4)nc3)c2cc1OC [Cpd 119],0.259
3,"COc1cc2nncc(-n3ccc4cc(N5CCOCC5)ccc43)c2cc1OC [Cpd 20, 6,7-dimethoxy-4-(5-morpholin-4-yl-1H-indol-1-yl)cinnoline hydroformate]",0.209
4,"COc1cc2nncc(-c3cnn(Cc4ccc(OC(F)(F)F)cc4)c3)c2cc1OC [Cpd 32, 6,7-dimethoxy-4-{1-[4-(trifluoromethoxy)benzyl]-1H-pyrazol-4-yl}cinnoline]",0.459
5,COc1cc2nncc(-c3ccnc(N4CCOCC4)c3F)c2cc1OC [Cpd 42],0.062
6,CNC1CCN(c2ccc(-c3cnnc4cc(OC)c(OC)cc34)cn2)CC1 [Cpd 79],0.362
7,"COc1cccc(-n2cc(-c3cnnc4cc(OC)c(OC)cc34)cn2)c1 [Cpd 10, 6,7-Dimethoxy-4-[1-(3-methoxyphenyl)-1H-pyrazol-4-yl]cinnoline hydroformate]",0.068
8,COc1cc2nncc(-c3ccc(NCCN)nc3)c2cc1OC [Cpd 63],0.614
9,"COc1cc2nncc(-c3ccc(CN4CC(C(=O)O)C4)cc3)c2cc1OC [Cpd 101, 1-(4-(6,7-dimethoxycinnolin-4-yl)benzyl)azetidine-3-carboxylic acid]",0.231
10,COc1cc2nncc(-c3ccc(Oc4ccccc4)nc3)c2cc1OC [Cpd 87],0.152
11,"COc1cc2nncc(-c3cnn(Cc4ccc(-c5ccccc5)cc4)c3)c2cc1OC [Cpd 23, 4-[1-(Biphenyl-4-ylmethyl)-1H-pyrazol-4-yl]-6,7-dimethoxycinnoline]",0.474
12,COc1cc2nncc(-c3ccc(Nc4ccc(N(C)C)cc4)nc3)c2cc1OC [Cpd 88],0.179
13,COc1cc2nncc(-c3ccc(NCC4CCN4C(=O)OC(C)(C)C)nc3)c2cc1OC (stereo not drawn) [Cpd 65],0.0666
14,COc1cc2nncc(-c3ccnc(N4CCN(C)C(=O)C4)c3)c2cc1OC [Cpd 54],0.0558
15,"COc1cc2nncc(-c3cnn(Cc4cccc(C(F)(F)F)c4)c3)c2cc1OC [Cpd 26, 6,7-Dimethoxy-4-{1-[3-(trifluoromethyl)benzyl]-1H-pyrazol-4-yl}cinnoline]",0.182
16,COc1cc2nncc(-c3ccc(NCc4cccc(OC(F)(F)F)c4)nc3)c2cc1OC [Cpd 122],0.186
17,"COc1cc2nncc(N3CCc4cc(N5CCCCC5)ccc4C3=O)c2cc1OC [Cpd 4, 2-(6,7-dimethoxycinnolin-4-yl)-6-piperidin-1-yl-3,4-dihydroisoquinolin-1(2H)-one]",0.167
18,COc1cc2nncc(-c3ccc(Nc4cccc(C#N)c4)nc3)c2cc1OC [Cpd 95],0.0879
19,COc1cc2nncc(-c3ccc(Nc4ccccc4)nc3)c2cc1OC [Cpd 81],0.0891
20,"COc1cc2nncc(-c3cccc(-c4cnn(C)c4)c3)c2cc1OC [Cpd 5, 6,7-dimethoxy-4-[3-(1-methyl-1H-pyrazol-4-yl)phenyl]cinnoline hydroformate]",0.0798
21,COc1cc2nncc(-c3cnc(-c4cnc(NC(C)C)c(F)c4)c(F)c3)c2cc1OC [Cpd 115],0.676
22,"COc1cc2nncc(-c3cnn(Cc4ccccc4C#N)c3)c2cc1OC [Cpd 28, 2-{[4-(6,7-Dimethoxycinnolin-4-yl)-1H-pyrazol-1-yl]methyl}benzonitrile]",0.101
23,COc1cc2nncc(-c3ccc(C(C)=O)c(F)c3)c2cc1OC [Cpd 100],0.254
24,COc1cc2nncc(-c3ccc(OCc4ccc5ccccc5n4)cc3)c2cc1OC [Cpd 68],0.106
25,"COc1cc2nncc(-c3cccc(N4CCOCC4)c3)c2cc1OC [Cpd 1, 6,7-dimethoxy-4-(3-morpholin-4-ylphenyl)cinnoline]",0.0579
26,"COC(=O)c1ccc(Cn2cc(-c3cnnc4cc(OC)c(OC)cc34)cn2)cc1 [Cpd 24, Methyl 4-{[4-(6,7-dimethoxycinnolin-4-yl)-1H-pyrazol-1-yl]methyl}benzoate]",0.0487
27,COc1cc2nncc(N3CCc4c(OCC5CC5)cccc4C3=O)c2cc1OC [Cpd 46],0.247

# Next, values leading:
row,IC50 [µM],SMILES
1,0.0338,"COc1cc2nncc(-c3ccc(OCC4CC4)nc3)c2cc1OC [Cpd 89, 4-(6-(cyclopropylmethoxy)pyridin-3-yl)-6,7-dimethoxycinnoline]"
2,0.0179,COc1cc2nncc(-c3ccc(NCCc4ccccn4)nc3)c2cc1OC [Cpd 93]
3,0.0214,COc1cc2nncc(-c3ccc(N4CCC(O)(c5ccccc5)CC4)nc3)c2cc1OC [Cpd 108]
4,0.0193,"COc1cc2nncc(N3CCc4[nH]nc(C(=O)NC5CC5)c4C3)c2cc1OC [Cpd 7, N-cyclopropyl-5-(6,7-dimethoxycinnolin-4-yl)-4,5,6,7-tetrahydro-1H-pyrazolo[4,3-c]pyridine-3-carboxamide]"
5,0.0228,"COc1cc2nncc(-c3cccc(N(C)C)c3)c2cc1OC [Cpd 15, 3-(6,7-Dimethoxycinnolin-4-yl)-N,N-dimethylaniline hydroformate]"
6,0.0111,"COc1cc2nncc(-c3ccc(N4CCOCC4)nc3)c2cc1OC [Cpd 33, 6,7-Dimethoxy-4-(6-morpholin-4-ylpyridin-3-yl)cinnoline]"
7,0.0362,COCCNc1ccc(-c2cnnc3cc(OC)c(OC)cc23)cn1 [Cpd 62]
8,0.0415,COc1cc2nncc(-c3ccc(F)c(NC(C)=O)c3)c2cc1OC [Cpd 146]
9,0.0185,COc1cc2nncc(-c3ccc(NC(C)C)nc3C)c2cc1OC [Cpd 123]
10,0.0485,CCOC(=O)c1noc2ccc(-c3cnnc4cc(OC)c(OC)cc34)cc12 [Cpd 52]
11,0.0104,"COc1cc2nncc(-c3cnn(Cc4ccc(F)cc4)c3)c2cc1OC [Cpd 35, 4-[1-(4-fluorobenzyl)-1H-pyrazol-4-yl]-6,7-dimethoxycinnoline hydroformate]"
12,0.0386,COc1cc2nncc(-c3ccc(Nc4ccc(-c5cnco5)cc4)nc3)c2cc1OC [Cpd 118]
13,0.043,"COc1cc2nncc(-c3cccc(NC(C)=O)c3)c2cc1OC [Cpd 14, N-[3-(6,7-dimethoxycinnolin-4-yl)phenyl]acetamide hydroformate]"
14,0.0295,COc1cc2nncc(-c3ccc(N4CCC(F)(F)CC4)nc3)c2cc1OC [Cpd 56]
15,0.0121,"CCOC(=O)c1n[nH]c2ccc(-c3cnnc4cc(OC)c(OC)cc34)cc12 [Cpd 12, Ethyl 5-(6,7-dimethoxycinnolin-4-yl)-1H-indazole-3-carboxylate]"
16,0.0306,"COc1cc2nncc(-c3cccc(C4=NC(C)(C)CO4)c3)c2cc1OC [Cpd 8, 4-[3-(4,4-Dimethyl-4,5-dihydro-1,3-oxazol-2-yl)phenyl]-6,7-dimethoxycinnoline]"
17,0.0298,"CCS(=O)(=O)c1cccc(-c2cnnc3cc(OC)c(OC)cc23)c1 [Cpd 3, 4-[3-(Ethylsulfonyl)phenyl]-6,7-dimethoxycinnoline]"
18,0.00823,COc1cc2nncc(-c3ccc(NC(C)C)nc3)c2cc1OC [Cpd 59]
19,0.0199,"COc1cc2nncc(-c3cnc(N4CCN(C)CC4)nc3)c2cc1OC [Cpd 43, 6,7-dimethoxy-4-[2-(4-methylpiperazin-1-yl)pyrimidin-5-yl]cinnoline]"
20,0.0436,"COc1cc2nncc(-c3cnn(Cc4ccc(C)cc4)c3)c2cc1OC [Cpd 21, 6,7-Dimethoxy-4-[1-(4-methylbenzyl)-1H-pyrazol-4-yl]cinnoline]"
21,0.0105,COc1cc2nncc(-c3ccc(N4CCC(OC)C4)nc3)c2cc1OC (stereo not drawn) [Cpd 55]
